Values quoted from earlier work, collected in patent US20230157980A1, “METHODS FOR TREATING HEARING LOSS INCIDENT TO COCHLEAR IMPLANT SURGERY” (HOUGH EAR INSTITUTE, priority 2018, published 2023).

Tested on: hearing loss caused by cochlear implantation

Structure (SMILES): CC(=O)N[C@@H](CS)C(=O)O [NAC, N-acetylcysteine]
- hearing improvement (local NAC, 32 kHz, 4-week post insertion time point): barely significant hearing improvement
- protective effect on hearing (local NAC, lower frequencies (below 32 kHz)): no protective effect
- effect on improving hearing (local administration of NAC): only modest and transient effects
